Read-outs that look alike come from different tables or passages of the source.
Experiments:
human CB1 receptor [1] = molecular target: T1, human CB1 receptor (Homo sapiens, UniProt P21554); assay: CB1 calcium mobilization assay (antagonist mode, against EC80 of CP55,940); assay type: cell-based; details: against EC80 (100 nM) of CP55,940, mean ± S.E.M., read-out: CB1 calcium assay IC50
T1 construct: host or cells: CHO-RD-HGA16 cells (CHO cells overexpressing promiscuous Galpha16)

human CB1 receptor [2] = molecular target: T1, human CB1 receptor; assay: CB1 calcium mobilization assay, agonist screen; assay type: cell-based; details: 10,000 nM final concentration, mean ± SD

T1 sequence (P21554 whole entry): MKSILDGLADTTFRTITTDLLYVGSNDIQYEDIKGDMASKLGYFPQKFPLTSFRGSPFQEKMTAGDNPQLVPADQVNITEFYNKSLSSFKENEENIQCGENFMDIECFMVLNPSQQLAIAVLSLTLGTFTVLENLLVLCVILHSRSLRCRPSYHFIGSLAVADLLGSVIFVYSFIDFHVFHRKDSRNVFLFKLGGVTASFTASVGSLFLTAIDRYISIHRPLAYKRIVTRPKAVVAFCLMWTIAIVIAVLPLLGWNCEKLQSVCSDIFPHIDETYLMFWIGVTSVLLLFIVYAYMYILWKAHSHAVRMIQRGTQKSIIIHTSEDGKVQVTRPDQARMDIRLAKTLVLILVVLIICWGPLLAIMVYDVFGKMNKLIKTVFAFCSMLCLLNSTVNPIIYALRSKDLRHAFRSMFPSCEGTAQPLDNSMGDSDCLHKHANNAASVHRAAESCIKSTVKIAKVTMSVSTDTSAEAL

| IC50 (human CB1 receptor [1]; Table 1) [nM] | CB1 calcium assay Agonist screen (% CP55, 940 Emax) (human CB1 receptor [2]; Table 1) | IC50 (human CB1 receptor [1]; Table 2) [nM] | CB1 calcium assay Agonist screen (% CP55, 940 Emax) (human CB1 receptor [2]; Table 2) | Structure (SMILES) |
| --- | --- | --- | --- | --- |
| 231 ± 14 | 2.4 ± 0.2 % CP55, 940 Emax |  |  | COc1cccc(-c2cccc(NC(=O)Nc3ccc(Cl)cc3)c2)n1 [Compound 15, 3-(4-Chlorophenyl)-1-[3-(6-methoxypyridin-2-yl)phenyl]urea] |
|  | 2.9 ± 0.1 % CP55, 940 Emax |  |  | Cc1ccnc(-c2cccc(NC(=O)Nc3ccc(Cl)cc3)c2)c1 [Compound 16, 3-(4-Chlorophenyl)-1-[3-(4-methylpyridin-2-yl)phenyl]urea] |
| 244 ± 45 | 34.2 ± 9.3 % CP55, 940 Emax |  |  | O=C(Nc1ccc(Cl)cc1)Nc1cccc(-c2cccnc2)c1 [Compound 19, 3-(4-Chlorophenyl)-1-[3-(pyridin-3-yl)phenyl]urea] |
| 290 ± 24 | 2.5 ± 6.2 % CP55, 940 Emax |  |  | O=C(Nc1ccc(Cl)cc1)Nc1cccc(-c2cncnc2)c1 [Compound 21, 3-(4-Chlorophenyl)-1-[3-(pyrimidin-5-yl)phenyl]urea] |
| 840 ± 130 | 9.8 ± 1.6 % CP55, 940 Emax |  |  | O=C(Nc1ccc(Cl)cc1)Nc1cccc(-c2cccc(O)c2)c1 [Compound 24, 3-(4-Chlorophenyl)-1-[3-(3-hydroxyphenyl)phenyl]urea] |
| 190 ± 45 | 4.4 ± 2.7 % CP55, 940 Emax |  |  | Cc1ccccc1-c1cccc(NC(=O)Nc2ccc(Cl)cc2)c1 [Compound 28, 3-(4-Chlorophenyl)-1-[3-(2-methylphenyl)phenyl]urea] |
| 95 ± 9 | 21.3 ± 3.7 % CP55, 940 Emax |  |  | O=C(Nc1ccc(Cl)cc1)Nc1cccc(-c2ccc(Cl)cc2)c1 [Compound 30, 3-(4-Chlorophenyl)-1-[3-(4-chlorophenyl)phenyl]urea] |
| 591 ± 48 | 4.0 ± 1.0 % CP55, 940 Emax |  |  | CC(C)(C)c1ccc(-c2cccc(NC(=O)Nc3ccc(Cl)cc3)c2)cc1 [Compound 36, 3-(4-Chlorophenyl)-1-[3-(4-tert-butylphenyl)phenyl]urea] |
| 460 ± 39 | 10.4 ± 2.1 % CP55, 940 Emax |  |  | CC(C)(C)c1cc(-c2cccc(NC(=O)Nc3ccc(Cl)cc3)c2)cc(C(C)(C)C)c1 [Compound 37, 3-(4-Chlorophenyl)-1-[3-(3,5-di-tert-butylphenyl)phenyl]urea] |
| 1340 ± 370 | −0.7 ± 2.4 % CP55, 940 Emax |  |  | O=C(Nc1ccc(Cl)cc1)Nc1cccc(-c2ccc(-c3ccccc3)cc2)c1 [Compound 39, 3-(4-Chlorophenyl)-1-[3-(4-phenylphenyl)phenyl]urea] |
|  | 12.9 ± 1.7 % CP55, 940 Emax |  |  | O=C(Nc1ccc(Cl)cc1)Nc1cccc(-c2ccc(C(=O)c3ccccc3)cc2)c1 [Compound 40, 3-(4-Chlorophenyl)-1-[3-(4-benzoylphenyl)phenyl]urea] |
| 1260 ± 160 | −0.1 ± 0.1 % CP55, 940 Emax |  |  | O=C(Nc1ccc(Cl)cc1)Nc1cccc(-c2ccc3c(c2)Cc2ccccc2-3)c1 [Compound 45, 3-(4-Chlorophenyl)-1-[3-(9H-fluoren-2-yl)phenyl]urea] |
|  |  | 66 ± 9 | 21 ± 4 % CP55, 940 Emax | O=C(Nc1ccc(Cl)cc1)Nc1ccc(-c2ccccc2)cc1 [Compound 59, 3-(4-Chlorophenyl)-1-(4-phenylphenyl)urea] |
| 174 ± 31 | 1.1 ± 0 % CP55, 940 Emax |  |  | O=C(Nc1ccc(Cl)cc1)Nc1cccc(N2CCCCC2)c1 [Compound 76, 3-(4-Chlorophenyl)-1-[3-(piperidin-1-yl)phenyl]urea] |
| 360 ± 64 | 12.4 ± 1.8 % CP55, 940 Emax |  |  | O=C(Nc1ccc(Cl)cc1)Nc1cccc(N2CCOCC2)c1 [Compound 77, 1-(4-Chlorophenyl)-3-[3-(morpholin-4-yl)phenyl]urea] |

| Structure (SMILES) | IC50 (human CB1 receptor [1]; Table 1) [nM] | CB1 calcium assay Agonist screen (% CP55, 940 Emax) (human CB1 receptor [2]; Table 1) | IC50 (human CB1 receptor [1]; Table 2) [nM] | CB1 calcium assay Agonist screen (% CP55, 940 Emax) (human CB1 receptor [2]; Table 2) |
| --- | --- | --- | --- | --- |
| O=C(Nc1ccc(Cl)cc1)Nc1cccc(-c2c(Cl)cccc2Cl)c1 [Compound 33, 3-(4-Chlorophenyl)-1-[3-(2,6-dichlorophenyl)phenyl]urea] | 338 ± 19 | 17.2 ± 3.1 % CP55, 940 Emax |  |  |

Reference: patent US11084781B2, “Diarylureas as CB1 allosteric modulators” (Research Triangle Institute, priority 2017, dated 2021)
